Experimental data reported in patent US20180148418A1, “AMIDO-SUBSTITUTED CYCLOHEXANE DERIVATIVES” (Bayer Pharma Aktiengesellschaft, priority 2015, published 2018).

Key:
[1] = test system: wildtype Wnt signaling cascade; assay: HEK293 TOP assay (Super TopFlash luciferase reporter, Wnt-3a stimulated); format: cell-based; details: Homo sapiens, HEK293, 16 h, HEK293 TOP reporter cells, Wnt3a at EC50, 16 hours
Outline: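 HEK293 cells stably carrying Super TopFlash (TOP) run in parallel with FOP cells, 10000/well plated 24 h ahead, stimulated with recombinant human Wnt-3a. Compounds tested 50 μM to 15 nM in 3.16-fold steps in CAFTY buffer pH 7.4 with 2 mM Ca^2+ and 0.01% BSA; luciferase read-out.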

TNKS2 = biological target: T1, TNKS2 (Homo sapiens, UniProt Q9H2K2); assay: TNKS2 Assay B (auto-parsylation, [3H]-NAD+ SPA); format: biochemical; details: 6 nM TNKS2, auto-parsylation, over night at room temperature
T1 construct: purchased BPS Bioscience, San Diego, USA 80572 (TNKS2 Histone Ribosylation Assay Kit)
T1 sequence (Q9H2K2 1-1166): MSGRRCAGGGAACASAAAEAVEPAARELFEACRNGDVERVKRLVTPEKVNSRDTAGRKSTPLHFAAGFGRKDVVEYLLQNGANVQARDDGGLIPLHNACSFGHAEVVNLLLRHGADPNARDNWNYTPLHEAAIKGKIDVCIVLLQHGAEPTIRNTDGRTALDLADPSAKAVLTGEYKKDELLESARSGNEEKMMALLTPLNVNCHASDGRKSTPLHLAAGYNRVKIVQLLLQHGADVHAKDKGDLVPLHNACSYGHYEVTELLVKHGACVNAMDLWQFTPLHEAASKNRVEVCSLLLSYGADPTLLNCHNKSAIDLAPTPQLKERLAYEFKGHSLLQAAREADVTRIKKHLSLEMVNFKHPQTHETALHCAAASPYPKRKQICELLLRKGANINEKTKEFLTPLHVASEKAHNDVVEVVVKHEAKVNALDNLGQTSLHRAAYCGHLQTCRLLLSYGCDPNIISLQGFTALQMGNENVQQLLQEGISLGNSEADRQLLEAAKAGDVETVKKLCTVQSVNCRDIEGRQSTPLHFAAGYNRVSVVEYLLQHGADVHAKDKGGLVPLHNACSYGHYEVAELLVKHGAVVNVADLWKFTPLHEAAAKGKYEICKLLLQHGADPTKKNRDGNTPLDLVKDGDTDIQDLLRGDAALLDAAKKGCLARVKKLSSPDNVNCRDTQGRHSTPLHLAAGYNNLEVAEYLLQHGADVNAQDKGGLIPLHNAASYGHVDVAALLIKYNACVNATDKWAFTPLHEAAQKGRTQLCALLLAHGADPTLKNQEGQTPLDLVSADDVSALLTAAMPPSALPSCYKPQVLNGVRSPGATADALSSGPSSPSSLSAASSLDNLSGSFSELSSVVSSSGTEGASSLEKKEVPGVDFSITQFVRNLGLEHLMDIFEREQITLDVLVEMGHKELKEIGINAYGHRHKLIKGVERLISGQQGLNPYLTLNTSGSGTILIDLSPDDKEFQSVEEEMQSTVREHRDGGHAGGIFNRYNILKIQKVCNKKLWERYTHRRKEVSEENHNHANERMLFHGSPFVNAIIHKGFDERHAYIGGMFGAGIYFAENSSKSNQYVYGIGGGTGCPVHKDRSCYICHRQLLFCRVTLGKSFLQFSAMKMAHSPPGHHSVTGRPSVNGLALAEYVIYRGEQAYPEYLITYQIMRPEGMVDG

[2] = test system: HEK293 cells cotransfected with the FOP control vector; assay: HEK293 FOP assay (control reporter with non-functional TCF elements); format: cell-based; details: Homo sapiens, 16 hours
Outline: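 Stable HEK293 line carrying FOP control reporter (randomized non-functional TCF sites, with pcDNA3), Geneticin-selected, plated 24 h before assay. Stimulated with recombinant human Wnt-3a (2500-5 ng/ml) and compounds 50 μM–15 nM (3.16-fold steps) in CAFTY buffer pH 7.4 with 2 mM Ca2+, 0.01% BSA, run parallel to TOP line.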

Row | IC50 [1] [nM] | IC50 (TNKS2) [nM] | SMILES | IC50 [2] [nM]
1 | 3.7 | 6.4 | O=C(N[C@H]1CC[C@@]2(CCN(c3c(F)cc(F)cc3Cl)C2=O)CC1)c1cnn2cccnc12 [Example 244, N-[(trans)-2-(2-chloro-4,6-difluorophenyl)-1-oxo-2-azaspiro[4.5]dec-8-yl]pyrazolo[1,5-a]pyrimidine-3-carboxamide] | ≥ 500
2 | 100 | 720 | O=C(N[C@H]1CC[C@@]2(CCN(c3cc(F)cc(F)c3)C2=O)CC1)c1cnn2cccnc12 [Example 245, N-[(trans)-2-(3,5-difluorophenyl)-1-oxo-2-azaspiro[4.5]dec-8-yl]pyrazolo[1,5-a]pyrimidine-3-carboxamide] | ≥ 50000
3 | 0.15 | 5.9 | O=C(N[C@H]1CC[C@@]2(CCN(c3cnccc3Cl)C2=O)CC1)c1cnn2cccnc12 [Example 246, N-[(trans)-2-(4-chloropyridin-3-yl)-1-oxo-2-azaspiro[4.5]dec-8-yl]pyrazolo[1,5-a]pyrimidine-3-carboxamide] | ≥ 50000
4 | 490 | 6000 | Cn1nc(C(=O)N[C@H]2CC[C@@]3(CCN(c4ccc(F)cc4Cl)C3=O)CC2)c2ccccc21 [Example 247, N-[(trans)-2-(2-chloro-4-fluorophenyl)-1-oxo-2-azaspiro[4.5]dec-8-yl]-1-methyl-1H-indazole-3-carboxamide] | 13000
5 | 5100 | > 10000 | O=C(N[C@H]1CC[C@@]2(CCN(c3ccc(F)cc3Cl)C2=O)CC1)c1n[nH]c2cccc(I)c12 [Example 248, N-[(trans)-2-(2-chloro-4-fluorophenyl)-1-oxo-2-azaspiro[4.5]dec-8-yl]-4-iodo-1H-indazole-3-carboxamide] | ≥ 50000
6 | 14000 | > 10000 | Cn1nc(C(=O)N[C@H]2CC[C@H](C(=O)Nc3ccc(F)cc3Cl)CC2)c2ccccc21 [Example 249, N-{trans-4-[(2-chloro-4-fluorophenyl)carbamoyl]cyclohexyl}-1-methyl-1H-indazole-3-carboxamide] | ≥ 50000
7 | ≥ 50000 | > 10000 | Cn1nc2ccccc2c1C(=O)N[C@H]1CC[C@H](C(=O)Nc2ccc(F)cc2Cl)CC1 [Example 250, N-{trans-4-[(2-chloro-4-fluorophenyl)carbamoyl]cyclohexyl}-2-methyl-2H-indazole-3-carboxamide] | ≥ 50000
8 | 2500 | > 10000 | O=C(N[C@H]1CC[C@@]2(CCN(c3ccc(F)cc3Cl)C2=O)CC1)c1n[nH]c2ccccc12 [Example 251, N-[trans-2-(2-chloro-4-fluorophenyl)-1-oxo-2-azaspiro[4.5]dec-8-yl]-1H-indazole-3-carboxamide] | ≥ 50000
9 | ≥ 50000 | > 10000 | O=C(N[C@H]1CC[C@H](C(=O)Nc2ccc(F)cc2Cl)CC1)c1c[nH]c2ccccc12 [Example 252, N-{trans-4-[(2-chloro-4-fluorophenyl)carbamoyl]cyclohexyl}-1H-indole-3-carboxamide] | ≥ 50000
10 | 20000 | > 10000 | O=C(N[C@H]1CC[C@H](C(=O)Nc2ccc(F)cc2Cl)CC1)c1n[nH]c2ccccc12 [Example 253, N-{trans-4-[(2-chloro-4-fluorophenyl)carbamoyl]cyclohexyl}-1H-indazole-3-carboxamide] | 19000
11 | 10000 | > 10000 | O=C(N[C@H]1CC[C@H](C(=O)Nc2ccc(F)cc2Cl)CC1)c1n[nH]c2ccc(F)cc12 [Example 254, N-{trans-4-[(2-chloro-4-fluorophenyl)carbamoyl]cyclohexyl}-5-fluoro-1H-indazole-3-carboxamide] | ≥ 50000
12 | ≥ 50000 | > 10000 | O=C(N[C@H]1CC[C@H](C(=O)Nc2ccc(F)cc2Cl)CC1)c1c(Cl)nc2ccccn12 [Example 255, 2-chloro-N-{trans-4-[(2-chloro-4-fluorophenyl)carbamoyl]cyclohexyl}imidazo[1,2-a]pyridine-3-carboxamide] | ≥ 50000
13 | 4.6 | 17 | NC(=O)c1nc[nH]c1C(=O)N[C@H]1CC[C@@]2(CCN(c3ccccc3Cl)C2=O)CC1 [Example 261, N^5-[(trans)-2-(2-chlorophenyl)-1-oxo-2-azaspiro[4.5]dec-8-yl]-1H-imidazole-4,5-dicarboxamide] | ≥ 50000
14 | 0.08 | 7 | O=C(N[C@H]1CC[C@@]2(CCN(c3ccccc3Cl)C2=O)CC1)c1[nH]cnc1C(=O)N1CC(F)C1 [Example 262, N-[(trans)-2-(2-chlorophenyl)-1-oxo-2-azaspiro[4.5]dec-8-yl]-4-[(3-fluoroazetidin-1-yl)carbonyl]-1H-imidazole-5-carboxamide] | ≥ 50000
15 | 2.7 | 11 | O=C(N[C@H]1CC[C@@]2(CCN(c3ccccc3Cl)C2=O)CC1)c1[nH]cnc1C(=O)N1CC2(COC2)C1 [Example 263, N-[(trans)-2-(2-chlorophenyl)-1-oxo-2-azaspiro[4.5]dec-8-yl]-4-(2-oxa-6-azaspiro[3.3]hept-6-ylcarbonyl)-1H-imidazole-5-carboxamide] | ≥ 50000
16 | 200 | 640 | O=C(N[C@H]1CC[C@@]2(CCN(c3ccccc3Cl)C2=O)CC1)c1n[nH]c2cccnc12 [Example 272, N-[(trans)-2-(2-chlorophenyl)-1-oxo-2-azaspiro[4.5]dec-8-yl]-1H-pyrazolo[4,3-b]pyridine-3-carboxamide] | ≥ 50000
17 | 1.9 | 11 | Cc1ccnc2c(C(=O)N[C@H]3CC[C@@]4(CCN(c5ccccc5Cl)C4=O)CC3)cnn12 [Example 273, N-[(trans)-2-(2-chlorophenyl)-1-oxo-2-azaspiro[4.5]dec-8-yl]-7-methylpyrazolo[1,5-a]pyrimidine-3-carboxamide] | ≥ 50000
18 | 2.8 | 71 | O=C(N[C@H]1CC[C@@]2(CCN(c3ccccc3Cl)C2=O)CC1)c1c[nH]c2cccnc12 [Example 274, N-[(trans)-2-(2-chlorophenyl)-1-oxo-2-azaspiro[4.5]dec-8-yl]-1H-pyrrolo[3,2-b]pyridine-3-carboxamide] | 38000
19 | 600 | 300 | O=C(N[C@H]1CC[C@@]2(CCN(c3cccc(Cl)c3)C2=O)CC1)c1c[nH]c2cccnc12 [Example 275, N-[(trans)-2-(3-chlorophenyl)-1-oxo-2-azaspiro[4.5]dec-8-yl]-1H-pyrrolo[3,2-b]pyridine-3-carboxamide] | 11000
20 | 440 | 4300 | CN1CCN(C(=O)c2nc[nH]c2C(=O)N[C@H]2CC[C@@]3(CCN(c4cccc(Cl)c4)C3=O)CC2)CC1 [Example 283, N-[(trans)-2-(3-chlorophenyl)-1-oxo-2-azaspiro[4.5]dec-8-yl]-4-[(4-methylpiperazin-1-yl)carbonyl]-1H-imidazole-5-carboxamide] | 20000
21 | 69 | 21 | O=C(NCCN1CCOCC1)c1nc[nH]c1C(=O)N[C@H]1CC[C@@]2(CCN(c3cccc(Cl)c3)C2=O)CC1 [Example 287, N^5-[(trans)-2-(3-chlorophenyl)-1-oxo-2-azaspiro[4.5]dec-8-yl]-N^4-[2-(morpholin-4-yl)ethyl]-1H-imidazole-4,5-dicarboxamide] | ≥ 50000
22 | 4.9 | 8.6 | Cc1cc(N2CC[C@]3(CC[C@@H](NC(=O)c4[nH]cnc4C(N)=O)CC3)C2=O)c(Cl)cc1F [Example 291, N^5-[(trans)-2-(2-chloro-4-fluoro-5-methylphenyl)-1-oxo-2-azaspiro[4.5]dec-8-yl]-1H-imidazole-4,5-dicarboxamide] | ≥ 50000
